Tests used:
[1] = Cmax in rat at 0.52 mg/kg, po by cassette assay; type: ADME, organism-based; set-up: dose 0.52 mg/kg, route oral; details: in vivo
[2] = biological target: Beta-3 adrenergic receptor (Homo sapiens, UniProt P13945); test: Agonist activity at human cloned beta3 adrenergic receptor expressed in CHO cells assessed as cAMP accumulation; type: functional, cell-based
[3] = AUC (0 to 24 hrs) in monkey at 1.0 mg/kg, po by cassette assay; type: ADME, organism-based, Macaca mulatta; set-up: time < 24 hr, dose 1 mg/kg, route oral; details: rhesus monkey, plasma
[4] = biological target: Beta-2 adrenergic receptor (Homo sapiens, UniProt P07550); test: Agonist activity at human beta2 adrenergic receptor expressed in CHO cells assessed as cAMP accumulation; type: functional, cell-based
[5] = Cmax in dog at 0.21 mg/kg, po by cassette assay; type: ADME, organism-based, Canis lupus familiaris; set-up: dose 0.21 mg/kg, route oral; details: in vivo
[6] = Oral bioavailability in dog at 0.1 mg/kg by cassette assay; type: ADME, organism-based, Canis lupus familiaris; details: in vivo
[7] = Total clearance in rat at 0.50 mg/kg, iv by cassette assay; type: ADME, organism-based; set-up: dose 0.5 mg/kg, route intravenous; details: in vivo, 0.5 mg/kg
Canis familiaris [8] = test: Ratio of Cmax for drug to Cmax for 3-[((7S)-7-{[(2R)-2-(3-Chlorophenyl)-2-hydroxyethyl]amino}-5,6,7,8-tetrahydro-2-naphthalenyl)oxy]benzoic acid hydrochloride in dog at 0.1 or 0.20 mg/kg, po by cassette dosing assay; type: ADME, organism-based, Canis lupus familiaris; set-up: dose 0.2 mg/kg, route oral; details: in vivo, 0.2 mg/kg
[9] = Total clearance in monkey at 0.32 mg/kg, iv by cassette assay; type: ADME, organism-based, Macaca mulatta; set-up: dose 0.32 mg/kg, route intravenous; details: rhesus monkey, in vivo
[10] = Cmax in monkey at 1.0 mg/kg, po by cassette assay; type: ADME, organism-based, Macaca mulatta; set-up: dose 1 mg/kg, route oral; details: rhesus monkey, in vivo
[11] = Terminal half life in dog at 0.1 mg/kg, iv by cassette assay; type: ADME, organism-based, Canis lupus familiaris; set-up: dose 0.1 mg/kg, route intravenous; details: in vivo
[12] = Oral bioavailability in monkey at 0.32 mg/kg by cassette assay; type: ADME, organism-based, Macaca mulatta; details: rhesus monkey, in vivo
[13] = Terminal half life in rat at 0.50 mg/kg, iv by cassette assay; type: ADME, organism-based; set-up: dose 0.5 mg/kg, route intravenous; details: in vivo, 0.5 mg/kg
[14] = biological target: Beta-1 adrenergic receptor (Homo sapiens, UniProt P08588)
Description: Agonist activity at human cloned beta-1 adrenergic receptor expressed in CHO cells assessed as cAMP accumulation

Canis familiaris [15] = test: Ratio of AUC for drug to AUC for 3-[((7S)-7-{[(2R)-2-(3-Chlorophenyl)-2-hydroxyethyl]amino}-5,6,7,8-tetrahydro-2-naphthalenyl)oxy]benzoic acid hydrochloride in dog at 0.1 or 0.20 mg/kg, po by cassette dosing assay; type: ADME, organism-based, Canis lupus familiaris; set-up: dose 0.2 mg/kg, route oral; details: in vivo, 0.2 mg/kg
[16] = AUC (0 to 24 hrs) in dog at 0.21 mg/kg, po by cassette assay; type: ADME, organism-based, Canis lupus familiaris; set-up: time < 24 hr, dose 0.21 mg/kg, route oral; details: plasma
[17] = AUC (0 to 24 hrs) in rat at 0.52 mg/kg, po by cassette assay; type: ADME, organism-based; set-up: time < 24 hr, dose 0.52 mg/kg, route oral; details: plasma
Homo sapiens = organism: Homo sapiens; test: Ratio of EC50 for human cloned beta-1 adrenergic receptor to EC50 for human cloned beta3 adrenergic receptor
[18] = Terminal half life in monkey at 0.32 mg/kg, iv by cassette assay; type: ADME, organism-based, Macaca mulatta; set-up: dose 0.32 mg/kg, route intravenous; details: rhesus monkey, in vivo
[19] = Oral bioavailability in rat at 0.50 mg/kg by cassette assay; type: ADME, organism-based; details: in vivo, 0.5 mg/kg
[20] = Total clearance in dog at 0.1 mg/kg, iv by cassette assay; type: ADME, organism-based, Canis lupus familiaris; set-up: dose 0.1 mg/kg, route intravenous; details: in vivo
[21] = Cmax in dog at 0.2 mg/kg, po by cassette assay; type: ADME, organism-based, Canis lupus familiaris; set-up: dose 0.2 mg/kg, route oral; details: in vivo
[22] = AUC (0 to 24 hrs) in dog at 0.2 mg/kg, po by cassette assay; type: ADME, organism-based, Canis lupus familiaris; set-up: time < 24 hr, dose 0.2 mg/kg, route oral; details: plasma
[23] = AUC (0 to 24 hrs) in dog at 0.32 mg/kg, po by cassette assay; type: ADME, organism-based, Canis lupus familiaris; set-up: time < 24 hr, dose 0.32 mg/kg, route oral; details: plasma
[24] = Cmax in dog at 0.32 mg/kg, po by cassette assay; type: ADME, organism-based, Canis lupus familiaris; set-up: dose 0.32 mg/kg, route oral; details: in vivo
[25] = Bioavailability in dog at 0.1 mg/mL, iv by cassette assay; type: ADME, organism-based, Canis lupus familiaris; details: in vivo
[26] = Total clearance in dog at 0.1 mg/mL, iv by cassette assay; type: ADME, organism-based, Canis lupus familiaris; details: in vivo
[27] = Terminal half life in dog at 0.1 mg/mL, iv by cassette assay; type: ADME, organism-based, Canis lupus familiaris; details: in vivo
Canis familiaris [28] = test: Ratio of Cmax for drug to Cmax for 4-((7S)-7-{[(2R)-2-(3-Chlorophenyl)-2-hydroxyethyl]amino}-5,6,7,8-tetrahydro-2-naphthalenyl)benzoic acid hydrochloride in dog at 0.1 or 0.20 mg/kg, po by cassette dosing assay; type: ADME, organism-based, Canis lupus familiaris; set-up: dose 0.2 mg/kg, route oral; details: in vivo, 0.2 mg/kg
Canis familiaris [29] = test: Ratio of AUC for drug to AUC for 4-((7S)-7-{[(2R)-2-(3-Chlorophenyl)-2-hydroxyethyl]amino}-5,6,7,8-tetrahydro-2-naphthalenyl)benzoic acid hydrochloride in dog at 0.1 or 0.20 mg/kg, po by cassette dosing assay; type: ADME, organism-based, Canis lupus familiaris; set-up: dose 0.2 mg/kg, route oral; details: in vivo, 0.2 mg/kg

Sequence of Beta-1 adrenergic receptor (P08588 whole entry): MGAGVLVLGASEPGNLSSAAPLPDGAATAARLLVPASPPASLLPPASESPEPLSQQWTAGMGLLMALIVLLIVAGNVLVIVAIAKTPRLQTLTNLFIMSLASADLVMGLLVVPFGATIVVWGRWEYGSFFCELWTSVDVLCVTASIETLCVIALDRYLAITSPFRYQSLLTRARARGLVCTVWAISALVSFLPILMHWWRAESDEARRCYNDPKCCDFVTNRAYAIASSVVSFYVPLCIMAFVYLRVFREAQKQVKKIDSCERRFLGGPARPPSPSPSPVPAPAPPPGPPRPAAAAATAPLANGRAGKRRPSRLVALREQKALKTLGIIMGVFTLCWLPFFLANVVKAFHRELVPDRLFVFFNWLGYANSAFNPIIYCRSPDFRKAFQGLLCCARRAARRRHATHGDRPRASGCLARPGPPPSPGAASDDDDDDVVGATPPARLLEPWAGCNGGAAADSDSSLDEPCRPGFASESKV
Sequence of Beta-3 adrenergic receptor (P13945 whole entry): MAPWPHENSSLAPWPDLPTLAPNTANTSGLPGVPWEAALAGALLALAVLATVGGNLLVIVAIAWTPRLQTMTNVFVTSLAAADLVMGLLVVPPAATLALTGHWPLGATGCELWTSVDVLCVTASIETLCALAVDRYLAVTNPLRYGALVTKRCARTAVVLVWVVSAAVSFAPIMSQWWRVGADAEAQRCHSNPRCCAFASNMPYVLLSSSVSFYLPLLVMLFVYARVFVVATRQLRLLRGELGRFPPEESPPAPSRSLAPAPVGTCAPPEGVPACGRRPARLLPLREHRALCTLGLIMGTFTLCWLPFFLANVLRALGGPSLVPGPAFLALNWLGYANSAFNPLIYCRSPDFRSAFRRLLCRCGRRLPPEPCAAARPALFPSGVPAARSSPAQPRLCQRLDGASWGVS
Sequence of Beta-2 adrenergic receptor (P07550 whole entry): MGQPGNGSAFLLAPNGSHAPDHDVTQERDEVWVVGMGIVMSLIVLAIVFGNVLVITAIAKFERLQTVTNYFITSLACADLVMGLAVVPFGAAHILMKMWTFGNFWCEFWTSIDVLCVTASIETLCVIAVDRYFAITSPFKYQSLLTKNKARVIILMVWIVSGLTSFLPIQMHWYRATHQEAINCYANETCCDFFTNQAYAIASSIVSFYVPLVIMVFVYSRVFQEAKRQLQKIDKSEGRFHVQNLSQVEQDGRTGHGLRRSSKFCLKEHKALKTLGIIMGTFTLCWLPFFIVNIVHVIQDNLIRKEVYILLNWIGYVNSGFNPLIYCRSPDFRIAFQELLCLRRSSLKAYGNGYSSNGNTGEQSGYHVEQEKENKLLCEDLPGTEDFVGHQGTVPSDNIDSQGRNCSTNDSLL

Row | SMILES | EC50 [2] [nM] | EC50 [4] [nM] | bioavailability [6] [%] | Ratio (Canis familiaris [8]) | half-life [11] [h] | EC50 [14] [nM] | Ratio AUC (Canis familiaris [15]) | Ratio EC50 (Homo sapiens) | clearance [20] [mL/min/kg] | Cmax [21] [ng/mL] | AUC(0-t) at 24 h [22] [ng·h/mL] | AUC(0-t) at 24 h [23] [ng·h/mL] | Cmax [24] [ng/mL] | bioavailability [25] [%] | clearance [26] [mL/min/kg] | half-life [27] [h] | other results
1 | COc1ccc(Oc2ccc3c(c2)C[C@@H](NC[C@H](O)c2ccc(Cl)cc2)CC3)cc1C(=O)O | 4.7 | > 1000 | 64.2 | 0.64 | 8.3 | > 1000 | 0.76 | > 217 | 1.4 | – | – | – | – | – | – | – | Cmax [1]: 367 ng/mL; AUC(0-t) at 24 h [3]: 1560 ng·h/mL; Cmax [5]: 103 ng/mL; clearance [7]: 2 mL/min/kg; clearance [9]: 5.3 mL/min/kg; Cmax [10]: 319 ng/mL; bioavailability [12]: 48%; half-life [13]: 11.9 h; AUC(0-t) at 24 h [16]: 1530 ng·h/mL; AUC(0-t) at 24 h [17]: 4580 ng·h/mL; half-life [18]: 6.7 h; bioavailability [19]: > 95%
2 | CN(C)c1cc(Oc2ccc3c(c2)C[C@@H](NC[C@H](O)c2cccc(Cl)c2)CC3)cc(C(=O)O)c1 | 3.2 | > 1000 | > 95 | 1.18 | 3.94 | > 1000 | 0.83 | > 312 | 2.38 | 189 | 1470 | – | – | – | – | – | –
3 | O=C(O)c1ccc(Oc2ccc3c(c2)C[C@@H](NC[C@H](O)c2cccc(Cl)c2)CC3)nc1 | 1.47 | > 1000 | – | – | – | 70 | – | 50 | – | – | – | 320 | 49 | 61 | 10.8 | 2.8 | –
4 | O=C(O)c1cccc(Oc2ccc3c(c2)C[C@@H](NC[C@H](O)c2cccc(Cl)c2)CC3)c1 | 7.1 | > 1000 | – | 1 | – | > 1000 | 1 | > 138 | – | – | – | 2000 | 151 | 81 | 2.4 | 7.9 | –
5 | O=C(O)c1cccc(Oc2ccc3c(c2)C[C@@H](NC[C@H](O)c2cccc(Cl)c2)CCC3)c1 | 4.5 | > 1000 | – | – | – | 160 | – | 35 | – | – | – | 538 | 65.7 | 69 | 6.8 | 3 | –
6 | O=C(O)c1ccc(-c2ccc3c(c2)C[C@@H](NC[C@H](O)c2cccc(Cl)c2)CC3)cc1 | 2.8 | > 1000 | – | – | – | > 1000 | – | > 357 | – | 97.4 | 1980 | – | – | 71 | 1.2 | 12.2 | Ratio (Canis familiaris [28]): 1; Ratio AUC (Canis familiaris [29]): 1

— ChEMBL document CHEMBL1155947, “Discovery of a novel series of benzoic acid derivatives as potent and selective human beta3 adrenergic receptor agonists with good oral bioavailability. 3. Phenylethanolaminotetraline (PEAT) skeleton containing biphenyl or biphenyl ether moiety” (J Med Chem, 2008)
